The results in this text go back to US6900216B2, “Dihydroimidazo[2,1-b]thiazole and dihydro-5h-thiazolo[3,2-A]pyrimidines as antidepressant agents” (Knoll GmbH, priority 2000, dated 2005).

One experiment relates to muscarinic receptors. As to the kind of experiment: Muscarinic binding: displacement of [3H]N-methylscopolamine, rat frontal cortical membranes. The note with it: for Muscarinic % displacement at 10^−6 M: 10^−6 M test compound, single determination, [3H]N-methylscopolamine; for Ki: [3H]N-methylscopolamine 0.15 nM, rat frontal cortical membranes. As to the method: Frontal cortical tissue from the brains of male Charles River rats weighing 150-250 g was homogenised in ice-cold 20 mM HEPES buffer, pH 7.5 (measured at 25° C.) containing 100 mM sodium chloride and 10 mM magnesium chloride (1:10 w/v) using a Polytron PT3100 (speed setting 21,700 rpm, 3×5 seconds) and centrifuged at 49,500 g for 30 minutes at 4° C. The supernatant was discarded and the pellet rehomogenised in 20 mM HEPES buffer, pH 7.5 containing 100 mM sodium chloride and 10 mM magnesium chloride (equivalent to 12.5 mg wet weight of tissue/ml). Membranes were stored at −80° C. until required.
Membranes were thawed, diluted 1:10 in ice-cold 20 mM HEPES buffer, pH 7.5 containing 100 mM sodium chloride and 10 mM magnesium chloride and homogenised using a Polytron PT3100 as above. Diluted membranes (200 μl; equivalent to 0.25 mg wet weight of tissue/tube) were incubated with 200 μl of 20 mM HEPES buffer, pH 7.5 containing 100 mM sodium chloride and 10 mM magnesium chloride and 50 μl [^3H]N-methylscopolamine at a single concentration of 0.15 nM and 50 μl distilled water (total binding) or 50 μl test compound (at a single concentration of 10^−6 M or at 10 concentrations ranging from 10^−11-10^−3 M) or 50 μl atropine sulphate (1 μM; non-specific binding) for 30 min at 30° C. Membrane bound radioactivity was recovered by filtration under vacuum through Skatron 11734 filters using a Skatron cell harvester. Filters were rapidly washed with ice-cold 20 mM HEPES buffer, pH 7.5 (wash 1,2 at setting 5,5). The scored filter paper discs were punched out into vials, scintillation fluid added and radioactivity determined by liquid scintillation counting.
(§1) For each of these tests measuring the ability of compounds of Formula I to displace standard ligands from 5-HT1A receptors and 5-hydroxytryptamine (5-HT) and noradrenaline (NA) reuptake sites and muscarinic receptors in vitro, the percentage displacement of specific binding of tritiated ligand by 10^−6 M test compound was calculated in the following way.
(§2) Firstly, specific binding of tritiated ligand in the absence (A) and presence (B) of test compound was determined:
(§3) In the absence of compound: A(dpm)=Total binding (dpm)−Non-specific binding (dpm) In the presence of compound (10^−6 M): B(dpm)=Binding at 10^−6M (dpm)−Non-specific binding (dpm)
(§4) The specific binding of tritiated ligand in the presence (B) of compound was then converted to a percentage of specific binding of tritiated ligand in the absence (A) of compound: % Specific binding at 10^−6 M=B(dpm)/A(dpm)×100
(§5) The percentage displacement of specific binding of tritiated ligand by the test compound (10^−6 M) was then obtained by subtraction of the percentage specific binding in the presence of compound from the percentage specific binding in the absence of compound, which is taken as the maximum binding and so equals 100%:
(§6) % Displacement at 10^−6 M=100−% Specific binding at 10^−6 M.
In some cases, displacement curves were then produced for compounds which displaced ≧50% of specific binding of the tritiated ligand at 10^−6 M using a range of concentrations of the compound. The Ki was then calculated by simultaneous fitting using equations derived from the Feldman equations by robust non-linear regression to data from three experiments simultaneously (De Lean et al., 1978; Munson and Rodbard, 1980; Feldman, 1992). Munson P J and Rodbard D. Ligand: a versatile computerised approach for characterisation of ligand binding systems. Anal Biochem 1980; 107: 220. Feldman HA. Mathematical theory of complex ligand binding systems at equilibrium: some methods for parameter fitting. Anal Biochem 1992: 48, 317. De Lean A, Munson P J and Rodbard D. Simultaneous analysis of families of sigmoidal curves: application to bioassay, radioligand assay, and physiological dose-response curves. Am J Physiol 1978: 235 (2), E97-E102. […]

Another experiment deals with T1, 5-HT reuptake sites (Rattus norvegicus, UniProt P31652).
T1 construct: Frontal cortical tissue from the brains of male Charles River rats; from tissue; host or cells: rat frontal cortical membranes
Briefly: 5-HT uptake: displacement of [3H]citalopram from 5-HT reuptake sites, rat frontal cortical membranes. Type of experiment: binding. The note with it: for Ki: [3H]citalopram 1.3 nM, rat frontal cortical membranes, fit to data from three experiments; for inhibition at 1 µM: 10^−6 M test compound, single determination, [3H]citalopram. On the procedure:
Frontal cortical tissue from the brains of male Charles River rats weighing 150-250 g was homogenised in ice-cold 50 mM Tris-HCl, pH 7.4 (when measured at 25° C.) containing 120 mM sodium chloride and 5 mM potassium chloride (Tris buffer; 1:30 w/v) and centrifuged at 40,000 g for 10 minutes. The supernatant was discarded and the pellet rehomogenised in Tris buffer, 1:60 w/v, and centrifuged at 40,000 g for 10 minutes. This step was repeated a further time. The final pellet was resuspended in 50 mM Tris-HCl, pH 7.4 containing 120 mM sodium chloride and 5 mM potassium chloride (equivalent to 3.125 mg wet weight of tissue/ml) and used immediately in the binding assay. All centrifugations were performed at 4° C.
Membranes (400 μl; equivalent to 1.25 mg wet weight of tissue/tube) were incubated with 50 μl [^3H]citalopram at a single concentration of 1.3 nM and 50 μl of distilled water (total binding) or 50 μl of test compound (at a single concentration of 10^−6 M or at 10 concentrations ranging from 10^−11-10^−3 M) or 50 μl of paroxetine (0.5 μM; non-specific binding) for 1 h at 27° C. Membrane bound radioactivity was recovered by filtration under vacuum through Skatron 11734 filters presoaked in 0.5% PEI using a Skatron Cell Harvester. Filters were then washed in ice-cold 50 mM Tris-HCl buffer, pH 7.4 (at 25° C., wash setting 9,9,0). The scored filter paper discs were punched out into vials, scintillation fluid added and radioactivity determined by liquid scintillation counting.
as §1, §2, §3, §4, §5, §6
In some cases, displacement curves were then produced for compounds which displaced ≧50% of specific binding of the tritiated ligand at 10^−6 M using a range of concentrations of the compound. The Ki was then calculated by simultaneous fitting using equations derived from the Feldman equations by robust non-linear regression to data from three experiments simultaneously (De Lean et al., 1978; Munson and Rodbard, 1980; Feldman, 1992). Munson P J and Rodbard D. Ligand: a versatile computerised approach for characterisation of ligand binding systems. Anal Biochem 1980; 107: 220. Feldman HA. Mathematical theory of complex ligand binding systems at equilibrium: some methods for parameter fitting. Anal Biochem 1992: 48, 317. De Lean A, Munson P J and Rodbard D. Simultaneous analysis of families of sigmoidal curves: application to bioassay, radioligand assay, and physiological dose-response curves. Am J Physiol 1978: 235 (2), E97-E102.
The results obtained in the above tests for 5-HT1A binding and 5-HT and NA uptake and muscarinic binding for the final products of Examples 1-39 hereinafter are given in Table 1 below. Kis are in nM. % Figures are for % displacement at 10^−6 M for a single determination.

T1 sequence (P31652 whole entry): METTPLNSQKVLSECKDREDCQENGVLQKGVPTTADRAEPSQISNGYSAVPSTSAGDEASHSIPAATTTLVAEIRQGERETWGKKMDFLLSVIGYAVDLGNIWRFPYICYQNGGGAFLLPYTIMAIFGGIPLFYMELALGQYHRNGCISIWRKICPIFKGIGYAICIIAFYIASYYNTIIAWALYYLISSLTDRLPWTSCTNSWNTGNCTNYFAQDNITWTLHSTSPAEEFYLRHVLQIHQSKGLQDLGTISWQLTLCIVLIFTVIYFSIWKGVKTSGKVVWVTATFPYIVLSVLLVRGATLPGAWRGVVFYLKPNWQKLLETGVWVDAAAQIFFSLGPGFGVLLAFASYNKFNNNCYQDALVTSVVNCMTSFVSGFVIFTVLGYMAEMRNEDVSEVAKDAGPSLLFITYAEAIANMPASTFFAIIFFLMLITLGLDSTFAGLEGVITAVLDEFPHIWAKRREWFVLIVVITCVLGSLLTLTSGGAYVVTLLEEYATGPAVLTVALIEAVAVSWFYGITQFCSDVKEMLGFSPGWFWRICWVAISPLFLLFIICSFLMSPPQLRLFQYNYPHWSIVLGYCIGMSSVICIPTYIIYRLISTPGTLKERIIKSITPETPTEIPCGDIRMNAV

As to `CSC1=C(c2cc3ccccc3s2)N2CCN=C2S1` [Example 19, 3-(benzo[b]thiophen-2-yl)-2-(methylthio)-5,6-dihydroimidazo[2,1-b]thiazole], the “Muscarinic % displacement at 10^−6 M” value in the experiment on muscarinic receptors was 2%. At 5-HT reuptake sites, this compound registered a Ki of 39 nM.
Regarding `Br.CC1=C(c2cc3cccc(Cl)c3s2)N2CCN=C2S1` [Example 20, 3-(7-chlorobenzo[b]thiophen-2-yl)-2-methyl-5,6-dihydroimidazo[2,1-b]thiazole hydrobromide], the “Muscarinic % displacement at 10^−6 M” value with muscarinic receptors is 16%. Testing at 1 µM on 5-HT reuptake sites gave an inhibition of 73%.
For `Br.CC1=C(c2ccc3sccc3c2)N2CCN=C2S1` [Example 21, 3-(benzo[b]thiophen-5-yl)-2-methyl-5,6-dihydroimidazo[2,1-b]thiazole hydrobromide], the “Muscarinic % displacement at 10^−6 M” value in the experiment with muscarinic receptors worked out at 9%. The affinity at 5-HT reuptake sites, expressed as Ki, was 92 nM.
For `CSC1=C(c2cccc3sccc23)N2CCN=C2S1.Cl` [Example 22, 3-(benzo[b]thiophen-4-yl)-2-(methylthio)-5,6-dihydroimidazo[2,1-b]thiazole hydrochloride], the values for the Ki on muscarinic receptors and at 5-HT reuptake sites were 439 nM and 85 nM, respectively.
As to `CC1=C(c2cccc3ccsc23)N2CCN=C2S1.Cl` [Example 23, 3-(benzo[b]thiophen-7-yl)-2-methyl-5,6-dihydroimidazo[2,1-b]thiazole hydrochloride], the “Muscarinic % displacement at 10^−6 M” value with muscarinic receptors is listed as −5%. Moreover, the Ki at 5-HT reuptake sites came to 229 nM.
`Br.CC1=C(c2cc3c(Cl)c(Cl)ccc3s2)N2CCN=C2S1` [Example 24, 3-(4,5-dichlorobenzo[b]thiophen-2-yl)-2-methyl-5,6-dihydroimidazo[2,1-b]-thiazole hydrobromide]: the “Muscarinic % displacement at 10^−6 M” value in the experiment with muscarinic receptors is listed as −10%. The compound further had an inhibition at 1 µM on 5-HT reuptake sites of 97%.
Regarding `CCC1=C(c2cccc3sccc23)N2CCN=C2S1.O=C(O)/C=C/C(=O)O` [Example 25, 3-(benzo[b]thiophen-4-yl)-2-ethyl-5,6-dihydroimidazo[2,1-b]thiazole fumarate], the Ki at muscarinic receptors (fumarate) stood at 249 nM; on 5-HT reuptake sites, 169 nM.
For the compound `Br.COc1cccc2cc(C3=C(C)SC4=NCCN43)sc12` [Example 26, 3-(7-methoxybenzo[b]thiophen-2-yl)-2-methyl-5,6-dihydroimidazo[2,1-b]thiazole hydrobromide], the “Muscarinic % displacement at 10^−6 M” value in the experiment with muscarinic receptors is −11%. 1 µM produced 64% inhibition at 5-HT reuptake sites.
As for `Br.CC1(c2cc3cc(F)ccc3s2)CSC2=NCCN21` (centres unmarked) [Example 27, 3-(5-fluorobenzo[b]thiophen-2-yl)-3-methyl-5,6-dihydroimidazo[2,1-b]thiazole hydrobromide], in the experiment on muscarinic receptors, the “Muscarinic % displacement at 10^−6 M” value was −1%. At 5-HT reuptake sites, this compound showed an inhibition at 1 µM of 85%.
For `OCC1=C(c2ccc3sccc3c2)N2CCN=C2S1` [Example 28, [3-(benzo[b]thiophen-5-yl)-5,6-dihydroimidazo[2,1-b]-thiazol-2-yl]methanol], the “Muscarinic % displacement at 10^−6 M” value in the experiment on muscarinic receptors is −8%. The compound also displayed a Ki on 5-HT reuptake sites of 148 nM.
Take `CC(C)C1=C(c2ccc3sccc3c2)N2CCN=C2S1` [Example 29, 3-(benzo[b]thiophen-5-yl)-2-(1-methylethyl)-5,6-dihydroimidazo[2,1-b]-thiazole]: the Ki was 798 nM at muscarinic receptors and 4.1 nM at 5-HT reuptake sites.
`CSC1=C(c2ccc3sccc3c2)N2CCN=C2S1` [Example 30, 3-(benzo[b]thiophen-5-yl)-2-(methylthio)-5,6-dihydroimidazo[2,1-b]thiazole]: the “Muscarinic % displacement at 10^−6 M” value in the experiment on muscarinic receptors was determined as 12%. This compound yielded an inhibition at 1 µM at 5-HT reuptake sites of 95%.
Turning to `CCC1=C(c2ccc3sccc3c2)N2CCN=C2S1.O=C(O)/C=C/C(=O)O` [Example 31, 3-(benzo[b]thiophen-5-yl)-2-ethyl-5,6-dihydroimidazo[2,1-b]thiazole fumarate], the “Muscarinic % displacement at 10^−6 M” value with muscarinic receptors is 26%. For the same compound, the Ki at 5-HT reuptake sites is 35 nM.
Take `CSC1=C(c2cccc3sccc23)N2CCN=C2S1.O=C(O)/C=C/C(=O)O` [Example 32, 3-(benzo[b]thiophen-4-yl)-2-(methylthio)-5,6-dihydroimidazo[2,1-b]thiazole fumarate]: the Ki came to 331 nM on muscarinic receptors (fumarate) and 223 nM on 5-HT reuptake sites.
On to `CC1=C(c2cccc3sc(C)cc23)N2CCN=C2S1.Cl` [Example 33, 2-methyl-3-(2-methylbenzo[b]thiophen-4-yl)-5,6-dihydroimidazo[2,1-b]thiazole hydrochloride], for which the “Muscarinic % displacement at 10^−6 M” value in the experiment with muscarinic receptors was 38%. Moreover, 1 µM produced 62% inhibition on 5-HT reuptake sites.
Regarding `Br.c1cc(C2=C(C3CC3)SC3=NCCN32)c2ccsc2c1` [Example 34, 3-(benzo[b]thiophen-4-yl)-2-cyclopropyl-5,6-dihydroimidazo[2,1-b]thiazole hydrobromide], the results for the Ki at muscarinic receptors and on 5-HT reuptake sites were 76 nM and 53 nM, respectively.
The matching figures for `CC(C)C1=C(c2cccc3sccc23)N2CCN=C2S1.O=C(O)/C=C/C(=O)O` [Example 35, 3-(benzo[b]thiophen-4-yl)-2-(1-methylethyl)-5,6-dihydroimidazo[2,1-b]thiazole fumarate]: 492 nM and 83 nM.
The matching figures for `Br.C=CCC1=C(c2cccc3sccc23)N2CCN=C2S1` [Example 36, 2-allyl-3-(benzo[b]thiophen-4-yl)-5,6-dihydroimidazo[2,1-b]thiazole hydrobromide]: 66 nM and 89 nM.
`Br.CC1=C(c2ccc3ccsc3c2)N2CCN=C2S1` [Example 37, 3-(benzo[b]thiophen-6-yl)-2-methyl-5,6-dihydroimidazo[2,1-b]thiazole hydrobromide]: the “Muscarinic % displacement at 10^−6 M” value in the experiment on muscarinic receptors is listed as 9%. Moreover, at 5-HT reuptake sites, the inhibition constant Ki amounted to 213 nM.

In general, Ki refers to a measure of affinity in units of concentration, obtained from inhibition or displacement. A higher Ki goes with weaker binding. By inhibition is commonly meant the drop in the measured response relative to a control, in per cent.
